The values below are quoted from earlier work in the CATMoS acute toxicity set (Mansouri et al. 2021).

Where “and” joins values, the source holds several entries; their conditions need not be identical. Identical values can stand only once.

The nature of the series: rat acute oral toxicity. The conditions noted are these: in vivo.
Turning to `O=C1CCc2cc(C(=O)CCN3CCN(c4cccc(Cl)c4)CC3)ccc2N1`, the 50% lethal dose (LD50) – broadly, the dose at which mortality reaches 50% – was 500 mg/kg.
Regarding `CCNC(C)c1ccccc1` (stereo unspecified), the median lethal dose (LD50) is 360 mg/kg.
With `CN(c1ccc(Cl)cc1Cl)c1c([N+](=O)[O-])cc([N+](=O)[O-])cc1C(F)(F)F`, the LD50 was 4.5 mg/kg.
`CC12CCC(C(Br)C1=O)C2(C)C` (stereo unspecified): the LD50 is 4450 mg/kg.
As to `Cc1nccnc1C`, the 50% lethal dose (LD50) is 613 mg/kg.
As for `Oc1cc(Cl)ccc1Oc1ccc(Cl)cc1Cl`, the median lethal dose (LD50) is 3700 mg/kg.
As for `CCC/C=C/C=O`, the LD50 is 780 mg/kg.
`C=C(CC)C(=O)c1ccc(OCC(=O)O)c(Cl)c1Cl`: the median lethal dose (LD50) is 1000 mg/kg.
In the case of `CC1=[N+](C)c2ccccc2C1(C)C`, the LD50 was 707 mg/kg.
As for `COP(=S)(OC)SC(C)N1CC(=O)C(=O)C1` (stereo unspecified), the median lethal dose (LD50) was 5.6 mg/kg.
`O=C(O)C(F)(F)C(F)(F)C(F)(F)C(F)(F)C(F)(F)C(F)(F)C(F)(F)C(F)F`: the LD50 is 821 mg/kg.
Consider `CCc1cc2c(cc1C(C)=O)C(C)(C)CCC2(C)C`, for which the LD50 is 260 mg/kg.
Turning to `CC(C)COC(=O)C(C)C`, the LD50 is 12800 mg/kg.
As for `C=CC(C)(CCC=C(C)C)OC(=O)C=Cc1ccccc1` (stereo unspecified), the 50% lethal dose (LD50) is 9960 mg/kg.
For the compound `CC1(C)C2CCC(C=O)C1C2` (stereo unspecified), the 50% lethal dose (LD50) is 2300 mg/kg.
Turning to `NC(=S)NC(=S)Nc1ccccc1`, the LD50 was 250 mg/kg.
`CCCCc1c(C)nc2ccccn2c1=O`: the LD50 was 1100 mg/kg.
With `O=C(Cl)c1cc(Cl)cc(Cl)c1`, the 50% lethal dose (LD50) was 794 mg/kg.
As to `O=C(Nc1nnc(CCN2c3ccccc3Sc3ccccc32)s1)c1ccccc1`, the median lethal dose (LD50) is 3220 mg/kg.
Consider `CCCCc1c(OC(=O)c2cc(OC)c(OC)c(OC)c2)n(-c2ccccc2)n(-c2ccccc2)c1=O`, for which the 50% lethal dose (LD50) was 3000 mg/kg.
On to `CCc1cc(CC)cc(OC(=O)NC)c1`, for which the LD50 was 1600 mg/kg.
As to `CC(Cc1ccccc1)NCCCCl` (stereo unspecified), the median lethal dose (LD50) was 410 mg/kg.
For `O=C(Cl)c1ccccc1C(F)(F)F`, the median lethal dose (LD50) is 8200 mg/kg.
On to `COP(=S)(OC)SCC(=O)N1CCOCC1`, for which the 50% lethal dose (LD50) was 190 mg/kg.
For the compound `CC(=O)OC(C)(C)C1CC=C(C)CC1` (stereo unspecified), the LD50 is 5080 mg/kg.
Take `COc1c2occc2c(OC)c2c(=O)cc(C)oc12`: the LD50 was 68.8 mg/kg.
In the case of `COc1ccc(S(=O)(=O)Nc2nnc(CC(C)C)s2)cc1`, the LD50 is 534 mg/kg.
In the case of `CCC[C@@H]1C[C@@H](C(=O)N[C@@H]([C@H]2O[C@H](SC)[C@H](O)[C@@H](O)[C@H]2O)[C@H](C)Cl)N(C)C1`, the LD50 is 2620 mg/kg and 2190 mg/kg.
In the case of `C=CCOC(=O)CCC1CCCCC1`, the LD50 is 585 mg/kg.
As to `CCOC(=O)C1=C(COCCN)NC(C)=C(C(=O)OC)C1c1ccccc1Cl` (stereo unspecified), the median lethal dose (LD50) is 393 mg/kg.
In the case of `Cc1ccc(OCC(=O)N[C@@H]2C(=O)N3[C@@H]2SC(C)(C)[C@@H]3C(=O)O)cc1Cl`, the LD50 was 2250 mg/kg.
As to `O=c1ccc2cc3ccoc3c(O)c2o1`, the LD50 is 480 mg/kg.
On to `CC1COn2c1nc1ccccc1c2=O` (stereo unspecified), for which the 50% lethal dose (LD50) was 765 mg/kg.
For `Nn1cnnc1`, the LD50 was 4800 mg/kg and 13600 mg/kg.
As for `CNCCCN`, the LD50 is 951 mg/kg.
For `N#Cc1cc(Cl)c2nc(C(F)(F)F)[nH]c2c1`, the 50% lethal dose (LD50) was 2.4 mg/kg.
`c1ccc2c(CC3=NCCN3)cccc2c1`: the median lethal dose (LD50) was 1260 mg/kg.
Consider `CN(C)c1ccc(N=Nc2ccc(S(=O)(=O)O)cc2)cc1`, for which the LD50 is 60 mg/kg.
For the compound `CCCC=C(CC)C(=O)O`, the median lethal dose (LD50) is 5660 mg/kg.
`O=C1NC(=O)C2(c3ccc(Cl)cc3)CC12` (stereo unspecified): the LD50 was 1550 mg/kg.
Regarding `COP(=S)(NC(C)C)Oc1ccc(Cl)cc1Cl` (stereo unspecified), the 50% lethal dose (LD50) is 270 mg/kg.
Consider `CN1[C@@H]2CC[C@H]1C[C@@H](OC1c3ccccc3CCc3ccccc31)C2`, for which the LD50 was 445 mg/kg.
For the compound `CCOP(=O)(OCC)OC(=C(Cl)Br)c1ccc(Cl)cc1Cl`, the LD50 was 19.3 mg/kg.
With `Cn1c(=O)c2c(ncn2CCCCN2CCN(c3ccc(Cl)cc3)CC2)n(C)c1=O`, the LD50 was 505 mg/kg.
Consider `CCCCCCCCCCOC(=O)c1ccccc1C(=O)OCCCCCCCC`, for which the median lethal dose (LD50) is 45000 mg/kg.
As to `O=c1[nH]c(=O)n([C@H]2C[C@H](O)[C@@H](CO)O2)cc1F`, the 50% lethal dose (LD50) was 215 mg/kg.
On to `NC(=S)Nc1ccc(Cl)cc1`, for which the LD50 was 15 mg/kg.
For the compound `CS(=O)(=O)c1ccc(N)c(Cl)c1`, the 50% lethal dose (LD50) was 9500 mg/kg.
On to `ClCCBr`, for which the LD50 is 64 mg/kg.
`Nc1ccc([N+](=O)[O-])c(N)c1`: the 50% lethal dose (LD50) is 4500 mg/kg.
On to `O=C1CCc2cc(C=CCN3CCN(c4cccc(Cl)c4)CC3)ccc2N1`, for which the LD50 is 500 mg/kg.
Take `O=C(C=Cc1ccccc1)OCC=Cc1ccccc1`: the median lethal dose (LD50) is 4200 mg/kg.
As for `CN(C)C(=O)Nc1ccc(SC(F)(F)Cl)c(Cl)c1`, the median lethal dose (LD50) is 336 mg/kg.
On to `CNC(=O)ON=C1CSC(C)CS1` (stereo unspecified), for which the LD50 was 5.1 mg/kg.
Regarding `CCN(CCO)CCn1c(Cc2ccccc2)nc2c1c(=O)n(C)c(=O)n2C`, the 50% lethal dose (LD50) was 1140 mg/kg.
`CCOP(=S)(OCC)SC(=O)CN(C)C(N)=O`: the LD50 was 16 mg/kg.
As for `CC(c1ccc(Cl)cc1)c1ccc(Cl)cc1`, the median lethal dose (LD50) is 1000 mg/kg.
In the case of `CCS(=O)(=O)Cl`, the median lethal dose (LD50) is 360 mg/kg.
Turning to `CC(N)C1CCC(c2ccccc2)CC1` (stereo unspecified), the LD50 is 690 mg/kg.
Regarding `OC(COc1ccccc1)COc1ccccc1`, the median lethal dose (LD50) was 1450 mg/kg.
In the case of `C=CCCC(=O)Cl`, the median lethal dose (LD50) is 470 mg/kg.
